# Experimental data published in patent US6432928B1, “Complexes and their compositions” (Chinoin Gyogyszer es Vegyeszeti Termekek Gyara Rt., priority 1994, dated 2002).
# Where two headings read alike, the source gives them in different places.
# How the values were obtained:
# [1] = cited from earlier work
# cell line K562 = assay: SRB-assay of cell growth, cell line K 562; assay type: cell-based, human; details: for cell growth by SRB-assay, extinction at 540 nm / cell growth, % of control: K562, 10−6M of Taxol and cyclodextrin; for cell growth, % of control: control = 100%; for toxicity to the cells, in words: K562, tested concentration of Table 3 (10−6M, 0.001 mM)
# Protocol: (§1) As control solutions containing similar amounts of cyclodextrins and no Taxol, further the Taxol-Cremophor EL composition. Cremophor EL solution and the untreated cell cultures were examined.
# (§2) The experiments were carried out and evaluated on both cell lines according to the examination methods of F. Skehan et al [New Colorimetric Assay of Anticancer Drug Screening, J. Natl. Canc. Inst. 82, 1107-1113 (1990) and A. Martin and M. Clynes (Comparison of 5 Microplate Colorimetric Assays for in Vitro Cytotoxicity Testing and Cell Proliferation Assays, Cytotechnology 11, 49-58 (1993)] in the Pathological and Experimental Cancer Research Institute No. 1 of the Semmelweis Medical University, Budapest.
# (§3) The cells were exposed in a RPMI 1640 medium containing 10% of Foetal Calf Serum (FCS) medium on a microplate of 96 wells, by placing 5000 cells in 100 μl of medium.
# (§4) The cell cultures were treated after 24 hours with a solution containing the test substances in 100 μl of a FCS-free RPMI medium, thus the final concentration of FCS became 5%. Every evaluation point is the averaged result of 8 parallels, the control was present in 8 parallels on each plate, thus the evaluation point was obtained by averaging 24 parallels. The eight test compositions were examined simultaneously, in one test on each cell line.
# (§5) After 72 and 96 hours the cell growth was measured by SRB-assay (the determining method is SRB-painting of the total protein, the total protein is proportional to the cell growth, the extinction was read by a Microplate reader at a wave length of 540 nm).
# cell line PC 3 = assay: SRB-assay of cell growth, cell line PC 3; assay type: cell-based, human; details: for cell growth by SRB-assay, extinction at 540 nm / cell growth, % of control: PC 3, 10^−6M of Taxol and cyclodextrin; for cell growth, % of control: control = 100%; for toxicity to the cells, in words: PC 3, tested concentration of Table 2 (10^−6M, 0.001 mM)
# Protocol: as §1, §2, §3, §4, §5
# mouse = mouse experiments, a 50% triacetine emulsion; cited from earlier work
# [2] = Appearance and Taxol content of the compositions as prepared; assay type: physicochemical; details: Taxol alone dissolved in ethanol or 1:1 ethanol and water
# physchem [3] = details: 25 °C, water
# [4] = Solubility of Taxol with cyclodextrins and co-solvents, Higuchi-Connor method, HPLC; details: for solubility: Taxol with RAMEB
# [5] = cited from earlier work; remark: listed apart in the source
# physchem [6] = details: 22 °C, thermodynamic from solid
smiles,measurement,setting,value
O=C(O)c1ccccc1Nc1cccc(C(F)(F)F)c1 [flufenamic acid],“aqueous” stability constant,"[1]; aqueous, without methanol",1300 M⁻¹
same,stability constant,[1]; in the presence of 25% by volume methanol,about 400 M^31 1
"COC[C@H]1O[C@@H]2O[C@H]3[C@H](O)[C@@H](OC)[C@@H](O[C@H]4[C@H](O)[C@@H](OC)[C@@H](O[C@H]5[C@H](O)[C@@H](OC)[C@@H](O[C@H]6[C@H](O)[C@@H](OC)[C@@H](O[C@H]7[C@H](O)[C@@H](OC)[C@@H](O[C@H]8[C@H](O)[C@@H](OC)[C@@H](O[C@H]1[C@H](O)[C@H]2OC)O[C@@H]8COC)O[C@@H]7COC)O[C@@H]6COC)O[C@@H]5COC)O[C@@H]4COC)O[C@@H]3COC [DIMEB, heptakis-2,6-0-dimethyl-β-cyclodextrin]","cell growth by SRB-assay, extinction at 540 nm",cell line K562; incubation time 72 hours,0.819 ± 0.178
same,"cell growth, % of control",cell line K562; incubation time 72 hours,(74%)
same,"cell growth by SRB-assay, extinction at 540 nm",cell line K562; incubation time 96 hours,1.729 ± 0.185
same,"cell growth, % of control",cell line K562; incubation time 96 hours,(110%)
same,"toxicity to the cells, in words",cell line K562,not toxic
same,"cell growth by SRB-assay, extinction at 540 nm",cell line PC 3; incubation time 72 hours,0.725 ± 0.200
same,"cell growth, % of control",cell line PC 3; incubation time 72 hours,(96%)
same,"cell growth, % of control",cell line PC 3; incubation time 96 hours,(102%)
same,"toxicity to the cells, in words",cell line PC 3,not toxic
"CC(=O)OCC(COC(C)=O)OC(C)=O [triacetine, 1,2,3-triacetyl-glycerol]",LD50,mouse,1.2 mg/mL
"CC(=O)O[C@H]1C(=O)[C@@]2(C)[C@H]([C@H](OC(=O)c3ccccc3)[C@]3(O)C[C@H](OC(=O)[C@H](O)[C@@H](NC(=O)c4ccccc4)c4ccccc4)C(C)=C1C3(C)C)[C@]1(OC(C)=O)CO[C@@H]1C[C@@H]2O (relative stereo) [Taxol, [2aR-[2aα,4β,4αβ,6β,9α(αR*,βS*a11α,12α,12aα,12bα]]-β-(benzoylamino)-α-hydroxy-benzene-propanoic acid 6,12-b-bis(acetyloxy)-12-(benzoyloxy)-2a,3-4,4a,5,6,9,10,11,12,12a,12b-dodecahydro-4,11-dihydroxy-4a,8,13,13-tetra-methyl-5-oxo-7,11-methano-1H-cyklodeca[3,4]-benz-[1,2-b]-oxeth-9-yl-ester]]",behaviour on dilution,[2],immediately precipitates when diluted
same,solubility,physchem [3],0.55 to 0.59 µg/mL
same,remark (appearance),"[4]; Taxol 4 mg/ml with γ-CD 1:63, 2:1 ethanol:water, remark wraps over r10-r11: white suspension",white
same,remark (appearance),"[4]; Taxol 4 mg/ml, no CD, 2:1 ethanol:water, remark wraps over r6-r9: clear solution. opalescening. then white precipitate",clear solution.
same,solubility,"[4]; molar ratio Taxol:CD 1:278, water",859.9 µg/mL
same,solubility,"[4]; molar ratio Taxol:CD 1:750, water",42.5 µg/mL
same,solubility,"[4]; molar ratio Taxol:CD 1:1500, water",4.4 µg/mL
same,solubility,"[4]; molar ratio Taxol:CD 1.300, water",231.7 µg/mL
same,solubility,[5]; 250-350 moles of a methylated cyclodextrin derivative related to 1 mole of Taxol (Hungarian application P93 01373),about 1 mg/ml
same,solubility of Taxol,[5]; mixed micelle system with bile acid salts and phospholipide,800 µg/mL
same,solubility,"[5]; with γ-cyclodextrin, molar ratio of 1:20",160 µg/mL
same,solubility at 24 h,"physchem [6]; 2:1 ethanol:water, aqueous with cosolvent or surfactant or cyclodextrin",4000 µg/mL
same,solubility at 24 h,"physchem [6]; DIMEB in 2:1 ethanol:water, aqueous with cosolvent or surfactant or cyclodextrin",4000 µg/mL
same,solubility at 24 h,"physchem [6]; DIMEB in water, aqueous with cosolvent or surfactant or cyclodextrin",~1000 µg/mL
same,solubility at 24 h,"physchem [6]; OH-P-βCD in water, aqueous with cosolvent or surfactant or cyclodextrin",100 µg/mL
same,solubility at 24 h,"physchem [6]; RAMEB in 2:1 ethanol-water, aqueous with cosolvent or surfactant or cyclodextrin",4000 µg/mL
same,solubility at 24 h,"physchem [6]; RAMEB in ethanol-water, aqueous with cosolvent or surfactant or cyclodextrin",4000 µg/mL
same,solubility at 24 h,physchem [6]; water,5.9 µg/mL
same,solubility at 24 h,"physchem [6]; γ-CD in 2:1 ethanol:water, aqueous with cosolvent or surfactant or cyclodextrin",4000 µg/mL
"OC[C@H]1O[C@@H]2O[C@H]3[C@H](O)[C@@H](O)[C@@H](O[C@H]4[C@H](O)[C@@H](O)[C@@H](O[C@H]5[C@H](O)[C@@H](O)[C@@H](O[C@H]6[C@H](O)[C@@H](O)[C@@H](O[C@H]7[C@H](O)[C@@H](O)[C@@H](O[C@H]8[C@H](O)[C@@H](O)[C@@H](O[C@H]9[C@H](O)[C@@H](O)[C@@H](O[C@H]1[C@H](O)[C@H]2O)O[C@@H]9CO)O[C@@H]8CO)O[C@@H]7CO)O[C@@H]6CO)O[C@@H]5CO)O[C@@H]4CO)O[C@@H]3CO [γ-CD, γ-cyclodextrin]","cell growth by SRB-assay, extinction at 540 nm",cell line K562; incubation time 72 hours,0.555 ± 0.200
same,"cell growth, % of control",cell line K562; incubation time 72 hours,(50%)
same,"cell growth by SRB-assay, extinction at 540 nm",cell line K562; incubation time 96 hours,"0.531 ± 0,072"
same,"cell growth, % of control",cell line K562; incubation time 96 hours,(34%)
same,"toxicity to the cells, in words",cell line K562,very toxic
same,"cell growth by SRB-assay, extinction at 540 nm",cell line PC 3; incubation time 72 hours,0.582 ± 0.126
same,"cell growth, % of control",cell line PC 3; incubation time 72 hours,(77%)
same,"cell growth by SRB-assay, extinction at 540 nm",cell line PC 3; incubation time 96 hours,"0.937 ± 0,214"
same,"cell growth, % of control",cell line PC 3; incubation time 96 hours,(71%)
same,"toxicity to the cells, in words",cell line PC 3,slightly toxic
